How the values were obtained:
CDK2_cyclinA2 = target: T1, CDK2_cyclinA2 (Homo sapiens, UniProt P24941); assay: Proqinase Kinase profiling; type: biochemical; conditions: read-out: % inhibition at 100nM
T1 construct: purchased DiscoverX

ABL1_F317I = target: T2, ABL1_F317I (Homo sapiens, UniProt P00519, F317I); assay: Proqinase Kinase profiling; type: biochemical; conditions: read-out: % inhibition at 100nM
T2 construct: purchased DiscoverX

FGR = target: T3, FGR (Homo sapiens, UniProt P09769); assay: Proqinase Kinase profiling; type: biochemical; conditions: read-out: % inhibition at 100nM
T3 construct: purchased DiscoverX
T3 sequence (P09769 whole entry): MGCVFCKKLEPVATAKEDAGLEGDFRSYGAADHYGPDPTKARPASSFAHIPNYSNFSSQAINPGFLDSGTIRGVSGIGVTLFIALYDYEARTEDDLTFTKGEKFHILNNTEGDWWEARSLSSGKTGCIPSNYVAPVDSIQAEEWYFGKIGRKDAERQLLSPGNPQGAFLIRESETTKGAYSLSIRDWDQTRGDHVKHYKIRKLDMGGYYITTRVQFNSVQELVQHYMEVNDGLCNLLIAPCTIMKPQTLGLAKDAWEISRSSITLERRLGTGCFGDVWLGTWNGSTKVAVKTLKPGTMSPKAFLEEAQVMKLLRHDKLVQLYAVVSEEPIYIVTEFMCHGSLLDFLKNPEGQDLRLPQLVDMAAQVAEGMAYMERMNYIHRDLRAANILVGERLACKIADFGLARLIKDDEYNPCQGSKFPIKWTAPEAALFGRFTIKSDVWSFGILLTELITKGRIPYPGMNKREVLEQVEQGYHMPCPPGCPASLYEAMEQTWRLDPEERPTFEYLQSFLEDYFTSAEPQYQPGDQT

CSNK2A1 = target: T4, CSNK2A1 (Homo sapiens, UniProt P68400); assay: Proqinase Kinase profiling; type: biochemical; conditions: read-out: % inhibition at 100nM
T4 construct: purchased DiscoverX
T4 sequence (P68400 whole entry): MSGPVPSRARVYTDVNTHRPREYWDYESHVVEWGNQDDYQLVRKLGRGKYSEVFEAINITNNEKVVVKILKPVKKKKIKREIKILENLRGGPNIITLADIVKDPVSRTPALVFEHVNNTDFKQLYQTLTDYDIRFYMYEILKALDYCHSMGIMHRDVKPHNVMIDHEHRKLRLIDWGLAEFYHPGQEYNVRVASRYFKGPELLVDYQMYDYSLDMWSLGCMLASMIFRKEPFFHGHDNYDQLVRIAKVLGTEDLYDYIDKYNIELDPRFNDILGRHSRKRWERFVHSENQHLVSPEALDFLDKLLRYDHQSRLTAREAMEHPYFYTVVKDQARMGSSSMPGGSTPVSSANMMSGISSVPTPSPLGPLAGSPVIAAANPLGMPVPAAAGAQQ

DAPK3 = target: T5, DAPK3 (Homo sapiens, UniProt O43293); assay: Proqinase Kinase profiling; type: biochemical; conditions: read-out: % inhibition at 100nM
T5 construct: purchased DiscoverX

PBK = target: T6, PBK (Homo sapiens, UniProt Q96KB5); assay: Proqinase Kinase profiling; type: biochemical; conditions: read-out: % inhibition at 100nM
T6 construct: purchased DiscoverX

MET_Y1230C = target: T7, MET_Y1230C (Homo sapiens, UniProt P08581, Y1230C); assay: Proqinase Kinase profiling; type: biochemical; conditions: read-out: % inhibition at 100nM
T7 construct: purchased DiscoverX

LRRK2_R1441C = target: T8, LRRK2_R1441C (Homo sapiens, UniProt Q5S007, R1441C); assay: Proqinase Kinase profiling; type: biochemical; conditions: read-out: % inhibition at 100nM
T8 construct: purchased DiscoverX

ROS1 = target: T9, ROS1 (Homo sapiens, UniProt P08922); assay: Proqinase Kinase profiling; type: biochemical; conditions: read-out: % inhibition at 100nM
T9 construct: purchased DiscoverX

TBK1 = target: T10, TBK1 (Homo sapiens, UniProt Q9UHD2); assay: Proqinase Kinase profiling; type: biochemical; conditions: read-out: % inhibition at 100nM
T10 construct: purchased DiscoverX

AURKC = target: T11, AURKC (Homo sapiens, UniProt Q9UQB9); assay: Proqinase Kinase profiling; type: biochemical; conditions: read-out: % inhibition at 100nM
T11 construct: purchased DiscoverX

INSRR = target: T12, INSRR (Homo sapiens, UniProt P14616); assay: Proqinase Kinase profiling; type: biochemical; conditions: read-out: % inhibition at 100nM
T12 construct: purchased DiscoverX
T12 sequence (P14616 27-1297): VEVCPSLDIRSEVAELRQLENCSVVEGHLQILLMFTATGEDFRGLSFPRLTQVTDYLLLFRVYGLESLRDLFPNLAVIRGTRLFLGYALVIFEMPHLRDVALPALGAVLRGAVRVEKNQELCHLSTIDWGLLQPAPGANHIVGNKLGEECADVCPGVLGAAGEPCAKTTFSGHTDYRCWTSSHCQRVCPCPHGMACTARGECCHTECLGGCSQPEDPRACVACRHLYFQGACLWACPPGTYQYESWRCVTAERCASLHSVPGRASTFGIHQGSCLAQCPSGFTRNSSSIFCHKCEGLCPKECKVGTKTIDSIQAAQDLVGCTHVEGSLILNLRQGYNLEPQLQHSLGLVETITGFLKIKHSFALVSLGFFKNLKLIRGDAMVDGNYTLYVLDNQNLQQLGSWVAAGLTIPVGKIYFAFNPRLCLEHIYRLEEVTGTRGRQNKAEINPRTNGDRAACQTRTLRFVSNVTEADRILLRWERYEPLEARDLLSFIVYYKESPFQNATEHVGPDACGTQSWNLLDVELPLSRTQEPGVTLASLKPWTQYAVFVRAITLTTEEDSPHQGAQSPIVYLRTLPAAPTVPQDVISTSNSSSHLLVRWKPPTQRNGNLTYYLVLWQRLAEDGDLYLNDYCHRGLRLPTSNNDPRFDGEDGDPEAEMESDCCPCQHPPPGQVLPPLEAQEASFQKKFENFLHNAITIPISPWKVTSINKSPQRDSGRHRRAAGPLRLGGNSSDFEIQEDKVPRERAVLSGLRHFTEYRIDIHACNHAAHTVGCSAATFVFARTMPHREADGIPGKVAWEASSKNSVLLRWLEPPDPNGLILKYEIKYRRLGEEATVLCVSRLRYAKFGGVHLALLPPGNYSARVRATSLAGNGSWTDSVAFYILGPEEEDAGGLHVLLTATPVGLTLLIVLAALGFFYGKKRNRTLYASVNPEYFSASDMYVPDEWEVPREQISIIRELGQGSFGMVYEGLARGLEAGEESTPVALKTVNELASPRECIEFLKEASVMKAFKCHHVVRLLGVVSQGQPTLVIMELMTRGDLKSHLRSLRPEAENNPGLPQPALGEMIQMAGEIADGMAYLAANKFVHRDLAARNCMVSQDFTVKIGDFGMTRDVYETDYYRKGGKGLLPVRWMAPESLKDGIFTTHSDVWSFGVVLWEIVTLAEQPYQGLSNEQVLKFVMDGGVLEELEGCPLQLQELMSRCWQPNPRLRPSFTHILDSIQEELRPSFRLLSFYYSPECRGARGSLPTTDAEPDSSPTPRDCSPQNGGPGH

EGFR = target: T13, EGFR (Homo sapiens, UniProt P00533); assay: Proqinase Kinase profiling; type: biochemical; conditions: read-out: % inhibition at 100nM
T13 construct: purchased DiscoverX
T13 sequence (P00533 25-1210): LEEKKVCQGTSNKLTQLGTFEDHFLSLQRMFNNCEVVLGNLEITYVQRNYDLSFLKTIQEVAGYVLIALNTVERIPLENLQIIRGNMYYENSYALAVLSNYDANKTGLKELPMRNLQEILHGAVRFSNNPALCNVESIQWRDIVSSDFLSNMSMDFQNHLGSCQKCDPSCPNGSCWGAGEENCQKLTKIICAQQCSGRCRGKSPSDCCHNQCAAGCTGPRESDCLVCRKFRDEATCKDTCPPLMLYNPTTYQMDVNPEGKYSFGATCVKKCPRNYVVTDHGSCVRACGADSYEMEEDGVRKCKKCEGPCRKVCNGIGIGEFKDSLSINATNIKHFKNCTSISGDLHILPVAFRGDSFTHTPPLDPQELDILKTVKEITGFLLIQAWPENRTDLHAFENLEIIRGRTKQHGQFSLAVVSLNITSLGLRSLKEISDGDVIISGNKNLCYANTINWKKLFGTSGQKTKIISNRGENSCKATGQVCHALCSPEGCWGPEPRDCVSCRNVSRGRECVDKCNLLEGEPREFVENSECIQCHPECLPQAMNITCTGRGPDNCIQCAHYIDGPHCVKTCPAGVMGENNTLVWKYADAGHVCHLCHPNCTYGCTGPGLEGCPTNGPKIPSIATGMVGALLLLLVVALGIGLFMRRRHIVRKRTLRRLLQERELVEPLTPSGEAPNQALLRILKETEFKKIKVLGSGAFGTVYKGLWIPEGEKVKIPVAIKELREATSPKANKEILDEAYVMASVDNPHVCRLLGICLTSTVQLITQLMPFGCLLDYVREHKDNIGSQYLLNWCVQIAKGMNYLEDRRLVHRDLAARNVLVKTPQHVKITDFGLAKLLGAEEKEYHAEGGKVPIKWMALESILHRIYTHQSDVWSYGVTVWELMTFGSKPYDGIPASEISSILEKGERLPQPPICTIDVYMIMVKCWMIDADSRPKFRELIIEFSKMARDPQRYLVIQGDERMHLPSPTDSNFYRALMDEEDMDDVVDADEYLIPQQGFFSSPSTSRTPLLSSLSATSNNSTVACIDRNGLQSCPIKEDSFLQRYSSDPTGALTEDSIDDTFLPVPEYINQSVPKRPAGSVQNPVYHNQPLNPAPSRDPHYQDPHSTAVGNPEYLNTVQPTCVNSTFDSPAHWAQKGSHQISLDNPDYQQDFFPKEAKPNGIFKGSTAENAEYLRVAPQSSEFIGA

MET_M1250T = target: T14, MET_M1250T (Homo sapiens, UniProt P08581, M1250T); assay: Proqinase Kinase profiling; type: biochemical; conditions: read-out: % inhibition at 100nM
T14 construct: purchased DiscoverX

CSNK1G2 = target: T15, CSNK1G2 (Homo sapiens, UniProt P78368); assay: Proqinase Kinase profiling; type: biochemical; conditions: read-out: % inhibition at 100nM
T15 construct: purchased DiscoverX

RET_E762Q = target: T16, RET_E762Q (Homo sapiens, UniProt P07949, E762Q); assay: Proqinase Kinase profiling; type: biochemical; conditions: read-out: % inhibition at 100nM
T16 construct: purchased DiscoverX
T16 sequence (P07949 29-1114 E762Q): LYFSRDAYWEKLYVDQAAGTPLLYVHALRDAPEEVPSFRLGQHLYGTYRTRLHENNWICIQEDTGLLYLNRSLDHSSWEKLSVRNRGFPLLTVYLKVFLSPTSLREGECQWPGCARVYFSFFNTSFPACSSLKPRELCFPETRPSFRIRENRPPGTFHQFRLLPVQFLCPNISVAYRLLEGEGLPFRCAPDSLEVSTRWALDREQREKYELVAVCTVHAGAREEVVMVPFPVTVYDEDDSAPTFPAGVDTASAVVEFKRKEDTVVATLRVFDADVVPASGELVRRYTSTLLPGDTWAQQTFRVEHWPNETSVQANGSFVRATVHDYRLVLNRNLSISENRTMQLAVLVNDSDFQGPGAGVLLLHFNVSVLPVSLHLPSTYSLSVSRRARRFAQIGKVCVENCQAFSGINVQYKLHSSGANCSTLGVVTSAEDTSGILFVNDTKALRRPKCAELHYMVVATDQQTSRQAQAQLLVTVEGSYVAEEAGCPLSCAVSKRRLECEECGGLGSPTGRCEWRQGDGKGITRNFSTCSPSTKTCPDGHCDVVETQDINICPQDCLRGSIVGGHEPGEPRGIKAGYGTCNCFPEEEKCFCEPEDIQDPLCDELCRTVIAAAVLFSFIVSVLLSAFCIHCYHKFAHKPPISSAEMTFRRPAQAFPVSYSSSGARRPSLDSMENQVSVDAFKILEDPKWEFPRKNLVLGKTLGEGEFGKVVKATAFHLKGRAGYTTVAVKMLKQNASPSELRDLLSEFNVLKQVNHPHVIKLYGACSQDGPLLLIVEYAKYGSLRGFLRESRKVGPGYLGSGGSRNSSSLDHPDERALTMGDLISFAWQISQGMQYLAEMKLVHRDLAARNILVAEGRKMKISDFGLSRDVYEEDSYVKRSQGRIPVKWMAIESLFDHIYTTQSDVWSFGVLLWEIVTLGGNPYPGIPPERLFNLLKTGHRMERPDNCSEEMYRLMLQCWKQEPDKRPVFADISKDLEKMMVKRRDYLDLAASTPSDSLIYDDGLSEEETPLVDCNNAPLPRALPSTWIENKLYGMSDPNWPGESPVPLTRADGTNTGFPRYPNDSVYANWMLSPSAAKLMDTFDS

MYLK = target: T17, MYLK (Homo sapiens, UniProt Q15746); assay: Proqinase Kinase profiling; type: biochemical; conditions: read-out: % inhibition at 100nM
T17 construct: purchased DiscoverX

MAPK13 = target: T18, MAPK13 (Homo sapiens, UniProt O15264); assay: Proqinase Kinase profiling; type: biochemical; conditions: read-out: % inhibition at 100nM
T18 construct: purchased DiscoverX

SRMS = target: T19, SRMS (Homo sapiens, UniProt Q9H3Y6); assay: Proqinase Kinase profiling; type: biochemical; conditions: read-out: % inhibition at 100nM
T19 construct: purchased DiscoverX

EPHA1 = target: T20, EPHA1 (Homo sapiens, UniProt P21709); assay: Proqinase Kinase profiling; type: biochemical; conditions: read-out: % inhibition at 100nM
T20 construct: purchased DiscoverX

DNAPK = target: T21, DNAPK (Homo sapiens, UniProt P78527); assay: Proqinase Kinase profiling; type: biochemical; conditions: read-out: % inhibition at 100nM
T21 construct: purchased DiscoverX

ALK2 = target: T22, ALK2 (Homo sapiens, UniProt Q04771); assay: DiscoverX Kd determination; type: binding
T22 construct: T7 phage fusion (or DNA tag for qPCR if made in HEK-293); purchased DiscoverX; host or cells: E. coli (T7 phage) or HEK-293
Method: (§1) DiscoverX Kd determination: For most assays, kinase-tagged T7 phage strains were prepared in an E. coli host derived from the BL21 strain. E. coli were grown to log-phase and infected with T7 phage and incubated with shaking at 32°C until lysis. The lysates were centrifuged and filtered to remove cell debris. The remaining kinases were produced in HEK-293 cells and subsequently tagged with DNA for qPCR detection. […] The liganded beads were blocked with excess biotin and washed with blocking buffer (SeaBlock (Pierce), 1% BSA, 0.05% Tween 20, 1 mM DTT) to remove unbound ligand and to reduce non-specific binding. […] Kds were determined using an 11-point 3-fold compound dilution series with three DMSO control points. […] The compounds were then diluted directly into the assays such that the final concentration of DMSO was 0.9%. All reactions performed in polypropylene 384-well plate. Each was a final volume of 0.02 ml. […] The kinase concentration in the eluates was measured by qPCR. An 11-point 3-fold serial dilution of each test compound was prepared in 100% DMSO at 100x final test concentration and subsequently diluted to 1x in the assay (final DMSO concentration = 1%). Most Kds were determined using a compound top concentration = 30.000 nM. […] Binding constants (Kds) were calculated with a standard dose-response curve using the Hill equation: Response = Background + Signal – Background 1 + (KdHill Slope / DoseHill Slope). The Hill Slope was set to -1. Curves were fitted using a non-linear least square fit with the Levenberg-Marquardt algorithm.

ALK5 = target: T23, ALK5 (Homo sapiens, UniProt P36897); assay: DiscoverX Kd determination; type: binding
T23 construct: T7 phage fusion (or DNA tag for qPCR if made in HEK-293); purchased DiscoverX; host or cells: E. coli (T7 phage) or HEK-293
Method: as §1

ALK4 = target: T24, ALK4 (Homo sapiens, UniProt P36896); assay: DiscoverX Kd determination; type: binding
T24 construct: T7 phage fusion (or DNA tag for qPCR if made in HEK-293); purchased DiscoverX; host or cells: E. coli (T7 phage) or HEK-293
Method: as §1

ALK3 = target: T25, ALK3 (Homo sapiens, UniProt P36894); assay: DiscoverX Kd determination; type: binding
T25 construct: T7 phage fusion (or DNA tag for qPCR if made in HEK-293); purchased DiscoverX; host or cells: E. coli (T7 phage) or HEK-293
Method: as §1

ALK1 = target: T26, ALK1 (Homo sapiens, UniProt P37023); assay: DiscoverX Kd determination; type: binding
T26 construct: T7 phage fusion (or DNA tag for qPCR if made in HEK-293); purchased DiscoverX; host or cells: E. coli (T7 phage) or HEK-293
Method: as §1

PRKCD = target: T27, PRKCD (Homo sapiens, UniProt Q05655); assay: Proqinase Kinase profiling; type: biochemical; conditions: read-out: % inhibition at 100nM
T27 construct: purchased DiscoverX

MAP3K3 = target: T28, MAP3K3 (Homo sapiens, UniProt Q99759); assay: Proqinase Kinase profiling; type: biochemical; conditions: read-out: % inhibition at 100nM
T28 construct: purchased DiscoverX
T28 sequence (Q99759 whole entry): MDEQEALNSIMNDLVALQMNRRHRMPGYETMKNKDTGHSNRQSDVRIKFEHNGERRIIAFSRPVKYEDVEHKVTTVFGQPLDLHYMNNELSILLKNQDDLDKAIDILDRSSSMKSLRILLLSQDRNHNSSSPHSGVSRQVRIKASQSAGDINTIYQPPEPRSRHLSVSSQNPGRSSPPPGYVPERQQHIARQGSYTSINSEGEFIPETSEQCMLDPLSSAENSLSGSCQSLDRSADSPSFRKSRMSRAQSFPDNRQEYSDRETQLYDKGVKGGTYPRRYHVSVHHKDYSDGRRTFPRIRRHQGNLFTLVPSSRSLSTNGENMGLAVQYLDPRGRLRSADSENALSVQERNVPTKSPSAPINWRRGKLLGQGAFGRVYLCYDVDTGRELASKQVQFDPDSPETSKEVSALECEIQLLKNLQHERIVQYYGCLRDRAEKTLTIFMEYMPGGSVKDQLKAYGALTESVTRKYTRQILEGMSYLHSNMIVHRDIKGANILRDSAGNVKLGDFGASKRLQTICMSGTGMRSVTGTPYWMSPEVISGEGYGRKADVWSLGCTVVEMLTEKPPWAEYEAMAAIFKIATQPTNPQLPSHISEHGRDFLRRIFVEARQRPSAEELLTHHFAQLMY

EGFR_L747-E749del_A750P = target: T29, EGFR_L747-E749del_A750P (Homo sapiens, UniProt P00533, A750P/DEL747-749); assay: Proqinase Kinase profiling; type: biochemical; conditions: read-out: % inhibition at 100nM
T29 construct: purchased DiscoverX

PIM1 = target: T30, PIM1 (Homo sapiens, UniProt P11309); assay: Proqinase Kinase profiling; type: biochemical; conditions: read-out: % inhibition at 100nM
T30 construct: purchased DiscoverX

NEK11 = target: T31, NEK11 (Homo sapiens, UniProt Q8NG66); assay: Proqinase Kinase profiling; type: biochemical; conditions: read-out: % inhibition at 100nM
T31 construct: purchased DiscoverX

PRKACA = target: T32, PRKACA (Homo sapiens, UniProt P17612); assay: Proqinase Kinase profiling; type: biochemical; conditions: read-out: % inhibition at 100nM
T32 construct: purchased DiscoverX

EGFR_G719C = target: T33, EGFR_G719C (Homo sapiens, UniProt P00533, G719C); assay: Proqinase Kinase profiling; type: biochemical; conditions: read-out: % inhibition at 100nM
T33 construct: purchased DiscoverX

SMILES | inhibition at 0.1 µM (CDK2_cyclinA2) | inhibition at 0.1 µM (ABL1_F317I) | inhibition at 0.1 µM (FGR) | inhibition at 0.1 µM (CSNK2A1) | inhibition at 0.1 µM (DAPK3) | inhibition at 0.1 µM (PBK) | inhibition at 0.1 µM (MET_Y1230C) | inhibition at 0.1 µM (LRRK2_R1441C) | inhibition at 0.1 µM (ROS1) | inhibition at 0.1 µM (TBK1) | inhibition at 0.1 µM (AURKC) | inhibition at 0.1 µM (INSRR) | inhibition at 0.1 µM (EGFR) | inhibition at 0.1 µM (MET_M1250T) | inhibition at 0.1 µM (CSNK1G2) | inhibition at 0.1 µM (RET_E762Q) | inhibition at 0.1 µM (MYLK) | inhibition at 0.1 µM (MAPK13) | inhibition at 0.1 µM (SRMS) | inhibition at 0.1 µM (EPHA1) | also measured
Clc1cc2cc(c1)-c1cnn3ccc(nc13)NCCOCCO2 [OD36] | 4% | 8% | 26% | -7% | 16% | 19% | 7% | 56% | 7% | 11% | 13% | 0% | 3% | 12% | -3% | 33% | 12% | 15% | 11% | 6% | inhibition at 0.1 µM (DNAPK): 13%; Kd (ALK2): 37 nM; Kd (ALK5): 3000 nM; Kd (ALK4): 3000 nM; Kd (ALK3): 3000 nM; Kd (ALK1): 90 nM; inhibition at 0.1 µM (PRKCD): 4%; inhibition at 0.1 µM (MAP3K3): 1%; inhibition at 0.1 µM (EGFR_L747-E749del_A750P): 2%; inhibition at 0.1 µM (PIM1): 29%; inhibition at 0.1 µM (NEK11): 4%; inhibition at 0.1 µM (PRKACA): -3%; inhibition at 0.1 µM (EGFR_G719C): 19%
Cc1cc2cc(c1)-c1cnn3ccc(nc13)NCCNC(=O)CCN(C)C2 [OD52] | 0% | -3% | 0% | 3% | 11% | -5% | -13% | 16% | 5% | -1% | -11% | 6% | -14% | -19% | 4% | 19% | 11% | 3% | -9% | -1% | inhibition at 0.1 µM (DNAPK): 4%; Kd (ALK2): 9.6 nM; Kd (ALK5): 850 nM; Kd (ALK4): 260 nM; Kd (ALK3): 1300 nM; Kd (ALK1): 13 nM; inhibition at 0.1 µM (PRKCD): 2%; inhibition at 0.1 µM (MAP3K3): 13%; inhibition at 0.1 µM (EGFR_L747-E749del_A750P): -9%; inhibition at 0.1 µM (PIM1): -3%; inhibition at 0.1 µM (NEK11): 4%; inhibition at 0.1 µM (PRKACA): -7%; inhibition at 0.1 µM (EGFR_G719C): -31%

— paper PMC6874179, “Development of Macrocycle Kinase Inhibitors for ALK2 Using Fibrodysplasia Ossificans Progressiva‐Derived Endothelial Cells” (JBMR Plus, 2019)
